Test system: CA-MRSA cells
Test: Broth dilution method, growth followed at OD600
Assay type: cell-based, Staphylococcus aureus
Conditions: stock solutions 20 μg/ml penicillin G, 20 μg/ml polymer, 40 μg/ml loaded polymer; 37° C., OD600 every 2 hours
Description: Broth dilution method was used to characterize the inhibition of penicillin G/polymer complex against CA-MRSA cells. Penicillin G, cationic cobaltocenium polymer or penicillin G/polymer complex was dissolved in water. Concentrations of the above solutions were at 20 μg/ml for penicillin G, 20 μg/ml for cationic polymer and 40 μg/ml penicillin G loaded polymer (20 μg/ml penicillin G and 20 μg/ml polymer). Solutions without polymers were prepared as the control samples. CA-MRSA cells were grown in tryptic soy broth (TSB) medium at 37° C. overnight. All bacteria were grown to an optical density of 1 (OD600=1). Then, the cells were diluted with TSB to give a bacterial assay stock with OD600=0.04. CA-MRSA cells ([…]) were added to each well in a 96 well assay plate.

CC1(C)S[C@@H]2[C@H](NC(=O)Cc3ccccc3)C(=O)N2[C@H]1C(=O)O [penicillin G, benzyl penicillin]
inhibition of CA-MRSA growth (OD600): some inhibition

From patent US9872917B2, “Anion-paired cationic metallocene-containing compounds and polymers as antimicrobial agents” (University of South Carolina, priority 2013, dated 2018)
